Assay results reported in patent US9861640B2, “Medicament for treatment of Alzheimer's disease” (KEMPHYS LTD., priority 2013, dated 2018).

Assays:
IL-4Rα = assay: Immunoblot of IL-4Rα in MG5 cells; format: cell-based, mouse; details: 5 μM each, 48 h
From the text: Primary microglia (type 1) were harvested from primary mixed glial cell cultures prepared from neonatal Wistar rat pups, as previously reported. Mouse microglial cell line MG5 and mouse glial cell line A1 were maintained as previously described. Mouse neuroblastoma cell line N1E-115 and Neuro 2a (American Type Culture Collection, Manassas, Va., USA) were maintained in Dulbecco's modified Eagle's medium (DMEM) supplemented with 10% fetal bovine serum (FBS), 20 U/ml penicillin (Invitrogen, Gaithersburg, Md., USA), and 20 μg/ml streptomycin (Invitrogen). Primary rat microglia were treated with Am80 (5 μM) and/or HX630 (5 μM) in the presence and absence of GW9662 (10 μM) for 48 h in Eagle's MEM supplemented with 10% FBS and 0.2% glucose. MG5 cells and A1 cells were treated with Am80 (5 μM) and/or HX630 (5 μM) for 48 h in DMEM containing 10% FBS. […]
Rat primary microglia and mouse microglial MG5 cells (5×10^6 cells per 100-mm dish) were homogenized in RIPA buffer [10 mM Hepes-NaOH (pH 7.4) containing 150 mM NaCl, 1 mM EDTA, 1% Triton X-100, 0.5% sodium deoxycholate, 0.1% SDS, 1 mM PMSF, 1 mg/ml leupeptin. […] Bound horseradish peroxidase-labeled antibodies were then detected via chemiluminescence (an ECL kit; Pierce, Rockford, Ill., USA). Protein concentrations were determined with the BCA Protein Assay Reagent (Pierce) and Bradford Protein Assay Reagent (Pierce).

[1] = tested on: RA response element (RARE); assay: RARE luciferase reporter gene assay in MG5 cells; format: cell-based, mouse; details: pGL3-RARE-Luc; 5 μM each, 24 h; fold induction relative to vehicle-treated cells
Procedure: MG5 cells (2×10^6 cells in 100 μl) were transfected by electroporation with 1.0 μg of pGL3-RARE-Luc (#13458; Addgene) or pGL3-Luc vector (Promega) and 0.25 μg of Renilla luciferase vector (phRL-TK) (Promega), using the Nucleofector transfection system (program #D-032; Amaxa) according to the manufacturer's protocol, taken up in the medium, and seeded in 48-well plates (1.25×10^5 cells/well). For some experiments, cells were transfected with 1.0 μg of pGL3-RARE-Luc or pGL3-Luc vector and 0.25 μg of phRL-TK in the presence of 0.25 μg each of pcDNA3.1-RAR (#16287; Addgene) and pcDNA3.1-RXR (#8882; Addgene). An empty pcDNA3.1 expression vector was used to maintain equal amounts of DNA for each transfection. Five hours after transfection, the cells were exposed to Am80 (5 μM) and/or HX630 (5 μM) in the medium for 24 h. Luciferase activities were determined in cell lysates. Firefly luciferase activity was normalized to that of Renilla luciferase for each well.

Row | Compound | IL-4Rα protein levels in MG5 cells (IL-4Rα) | RARE reporter activity in MG5 cells [1]
1 | CN1c2ccccc2N=C(c2ccc(C(=O)O)cc2)c2cc3c(cc21)C(C)(C)CCC3(C)C [HX630, 4-[5H-2,3-(2,5dimethyl-2,5-hexano)-5-methyldibenzo[b,e]-diazepin-11-yl]benzoic acid] | did not increase | no increase
2 | CC1(C)CCC(C)(C)c2cc(NC(=O)c3ccc(C(=O)O)cc3)ccc21 [Am80, 4-{(5,6,7,8-tetrahydro-5,5,8,8-tetramethyl-2-naphthalenyl)carbamoyl}benzoic acid] | did not increase | 4.3 fold
